Non-standard residues stand in square brackets, D forms with d. Residues, ends and D or L forms follow the SMILES beside them. *: point of attachment. Cholyl = C[C@H](CCC(=O)*)[C@H]1CC[C@H]2[C@@H]3[C@H](O)C[C@@H]4C[C@H](O)CC[C@]4(C)[C@H]3C[C@H](O)[C@]12C; pGlu = O=C1CC[C@@H](C(=O)O)N1
Legend:
gastric acid secretion [1] = conditions: rat, in vivo
Description: (§1) Experiments were carried out on male Wistar rats of 250–350 g, which had been starved overnight, and which were anaesthetized with an I.P. injection of Sagatal (pentobarbitone sodium, obtainable from Rhône Mérieux, Harlow Essex, UK) of dosage appropriate to the body weight. The criterion for anaesthesia was abolition of the hind limb flexor withdrawal reflex. The following surgical procedures were then carried out: tracheostomy to allow artificial ventilation if required, cannulation of the carotid artery to monitor blood pressure, cannulation of the external jugular vein to allow for the slow bolus infusion of drugs, intubation of the stomach at the pyloro-duodenal junction after ligation of the oesophagus to measure gastric acid secretion, cannulation of the terminal ileum and/or of the proximal jejunum distal to the ligament of Treitz for infusion of peptide hormones.
(§2) Gastric acid secretion was measured by the following method. 1.0 ml of glycine/mannitol buffer (1 part glycine (0.3M) and 4 parts D-mannitol (0.3M) adjusted to pH 6.5) was instilled into the stomach and left for 15 min when withdrawal was made. The HCl secreted was determined by back titration with 10 mM NaOH to pH 6.5.
(§3) The data are expressed as the mean±S.D. μmol HCl secreted by the stomach over the stated time period in response to the experimental procedure.

gastric acid secretion [2] = assay: Gastric acid secretion in anaesthetized rats after I.V., intra-ileal or jejunal administration of gastrin peptides (back titration of HCl); conditions: for increase in gastric acid secretion with respect to baseline: P=0.001; for effect on gastric acid secretion: unconjugated gastrin without prior injection of the respective conjugate; for absorption across the ileal wall into the circulation: cholate conjugated form introduced into the ileum; for stimulation of the peak gastric acid secretion: 5 rats
Description: as §1, §2, §3

CSCC[C@H](NC(=O)[C@@H](N)Cc1c[nH]c2ccccc12)C(=O)N[C@@H](CC(=O)O)C(=O)N[C@@H](Cc1ccccc1)C(N)=O [G4, Trp-Met-Asp-Phe amide]
absorption from the upper jejunum (gastric acid secretion [1]): lack of absorption
absorption of unconjugated gastrin (gastric acid secretion [1]): absorption of the unconjugated gastrin occurred
increase in gastric acid secretion with respect to baseline (gastric acid secretion [2]; first intravenous injection (start of experiment)): 0.42±0.10 μmol 15 min^1
fall in the mean gastric acid level (gastric acid secretion [2]; ileal infusion, 2500 μg kg^−1 in 1.0 ml isotonic saline, 6 experiments, P=0.043): 0.23 ± 0.21 µmol/h
increase in gastric acid secretion with respect to baseline (gastric acid secretion [2]; second intravenous injection (end of experiment)): 0.50±0.14 μmol 15 min^1
effect on gastric acid secretion (gastric acid secretion [2]): without effect on gastric acid secretion

CSCC[C@H](NC(=O)[C@H](Cc1c[nH]c2ccccc12)NC(=O)CC[C@@H](C)[C@H]1CC[C@H]2[C@@H]3[C@H](O)C[C@@H]4C[C@H](O)CC[C@]4(C)[C@H]3C[C@H](O)[C@]12C)C(=O)N[C@@H](CC(=O)O)C(=O)N[C@@H](Cc1ccccc1)C(N)=O [G4-CA, cholate-Trp-Met-Asp-Phe amide]
absorption across the ileal wall into the circulation (gastric acid secretion [2]): absorption of the conjugated gastrin across the ileal wall into the circulation occurred

CSCC[C@H](NC(=O)[C@H](Cc1c[nH]c2ccccc12)NC(=O)CNC(=O)[C@H](Cc1ccc(O)cc1)NC(=O)[C@H](C)NC(=O)[C@H](CCC(=O)O)NC(=O)[C@H](CCC(=O)O)NC(=O)[C@H](CCC(=O)O)NC(=O)CC[C@@H](C)[C@H]1CC[C@H]2[C@@H]3[C@H](O)C[C@@H]4C[C@H](O)CC[C@]4(C)[C@H]3C[C@H](O)[C@]12C)C(=O)N[C@@H](CC(=O)O)C(=O)N[C@@H](Cc1ccccc1)C(N)=O [G10-CA, cholate-Glu-Glu-Glu-Ala-Tyr-Gly-Trp-Met-Asp-Phe-amide] (Cholyl-EEEAYGWMDF-NH2)
absorption across the ileal wall into the circulation (gastric acid secretion [2]): absorption of the conjugated gastrin across the ileal wall into the circulation occurred

CC[C@H](C)[C@H](NC(=O)[C@H](Cc1ccccc1)NC(=O)[C@H](Cc1c[nH]cn1)NC(=O)[C@H](CCC(N)=O)NC(=O)[C@@H]1CCCN1C(=O)CNC(=O)[C@H](CCC(N)=O)NC(=O)[C@@H]1CCCN1C(=O)CNC(=O)[C@H](CC(C)C)NC(=O)[C@H](CCC(=O)O)NC(=O)CC[C@@H](C)[C@H]1CC[C@H]2[C@@H]3[C@H](O)C[C@@H]4C[C@H](O)CC[C@]4(C)[C@H]3C[C@H](O)[C@]12C)C(=O)N[C@@H](C)C(=O)N[C@@H](CC(=O)O)C(=O)N[C@@H](CC(C)C)C(=O)N[C@@H](CO)C(=O)N[C@@H](CCCCN)C(=O)N[C@@H](CCCCN)C(=O)N[C@@H](CCC(N)=O)C(=O)N[C@@H](CCCNC(=N)N)C(=O)N1CCC[C@H]1C(=O)N1CCC[C@H]1C(=O)N[C@@H](CCSC)C(=O)N[C@@H](CCC(=O)O)C(=O)N[C@@H](CCC(=O)O)C(=O)N[C@@H](CCC(=O)O)C(=O)N[C@@H](CCC(=O)O)C(=O)N[C@@H](CCC(=O)O)C(=O)N[C@@H](C)C(=O)N[C@@H](Cc1ccc(O)cc1)C(=O)NCC(=O)N[C@@H](Cc1c[nH]c2ccccc12)C(=O)N[C@@H](CCSC)C(=O)N[C@@H](CC(=O)O)C(=O)N[C@@H](Cc1ccccc1)C(N)=O [G34-CA] (Cholyl-ELGPQGPQHFIADLSKKQRPPMEEEEEAYGWMDF-NH2)
absorption across the ileal wall into the circulation (gastric acid secretion [2]): absorption of the conjugated gastrin across the ileal wall into the circulation occurred

H-EEEAYGWMDF-NH2 [G10, H-Glu-Glu-Glu-Ala-Tyr-GlyTrp-Met-Asp-Phe-amide]
absorption of unconjugated gastrin (gastric acid secretion [1]): absorption of the unconjugated gastrin occurred
stimulation of the peak gastric acid secretion (gastric acid secretion [2]; I.V. 36 μg kg^−1, initial injection, P=0.036): 1.28 ± 0.93 µmol
stimulation of the peak gastric acid secretion (gastric acid secretion [2]; I.V. 36 μg kg^−1, second injection at the end of the experiment, P=0.048): 1.45 ± 1.15 µmol
change in gastric acid secretion (gastric acid secretion [2]; infusion into the ileum, 6600 μg kg^−1 in 1.0 ml, not significant (P=0.23)): −1.22±1.93 μmol 180 min^−1
effect on gastric acid secretion (gastric acid secretion [2]): without effect on gastric acid secretion

pGlu-Leu-Gly-Pro-Gln-Gly-Pro-Gln-His-Phe-Ile-Ala-Asp-Leu-Ser-Lys-Lys-Gln-Arg-Pro-Pro-Met-Glu-Glu-Glu-Glu-Glu-Ala-Tyr-GlyTrp-Met-Asp-Phe-NH2 ([pGlu]LGPQGPQHFIADLSKKQRPPMEEEEEAYGWMDF-NH2; ends and bridges not checked) [G34]
absorption of unconjugated gastrin (gastric acid secretion [1]): absorption of the unconjugated gastrin occurred
stimulation of the peak gastric acid secretion (gastric acid secretion [2]; I.V. 10 ng kg^−1, second injection at the end of the experiment, P=0.0005): 0.23 ± 0.051 µmol
stimulation of the peak gastric acid secretion (gastric acid secretion [2]; I.V. near threshold dose 10 ng kg^−1, initial injection, P=0.0008): 0.14 ± 0.034 µmol
change in mean gastric acid secretion (gastric acid secretion [2]; infusion into the ileum, 10.5 mg kg^−1 in 1.0 ml, not significant (P=0.16)): 0.202±0.262 μmol 180 min^−1
mean increase in gastric acid secretion (gastric acid secretion [2]; intraileal infusion of G34 subsequent to intraileal infusion of G34-CA, 4 rats, P=0.004): 5.68±1.38 μmol 180 min^−1
effect on gastric acid secretion (gastric acid secretion [2]): without effect on gastric acid secretion

— patent US7153930B1, “Peptide transport” (priority 1999, dated 2006)
